Measurements as given in ChEMBL document CHEMBL1201862, “PubChem BioAssay data set” (2004).
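Protocol summary: plate cells (96-well), add compound at 5 concentrations, incubate 48 h, interpolate endpoints linearly. At the GI50, growth is halved.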 Activity calls are given as the source filed them. Cut-off read from the data, not from the text of the source: active = GI50 up to about 1.1 µM and inactive = higher.

Legend:
Assay in all cases: NCI tumour cell line growth inhibition, 48 h
SK-MEL-28 = test system: SK-MEL-28
OVCAR-4 = test system: OVCAR-4
TK-10 = test system: TK-10
SF-268 = test system: SF-268
M14 = test system: M14
CCRF-CEM = test system: CCRF-CEM
HOP-62 = test system: HOP-62
COLO 205 = test system: COLO 205
HT-29 = test system: HT-29
HCT-116 = test system: HCT-116
K562 = test system: K562
HCC 2998 = test system: HCC 2998
SNB-78 = test system: SNB-78
NCI-H23 = test system: NCI-H23
UACC-62 = test system: UACC-62
NCI-H460 = test system: NCI-H460
KM12 = test system: KM12
Hs-578T = test system: Hs-578T
MCF7 = test system: MCF7

SMILES | GI50 (SK-MEL-28) | GI50 (OVCAR-4) | GI50 (TK-10) | GI50 (SF-268) | GI50 (M14) | GI50 (CCRF-CEM) | GI50 (HOP-62) | GI50 (COLO 205) | GI50 (HT-29) | GI50 (HCT-116) | GI50 (K562) | GI50 (HCC 2998) | GI50 (SNB-78) | GI50 (NCI-H23) | GI50 (UACC-62) | GI50 (NCI-H460) | GI50 (KM12) | GI50 (Hs-578T) | GI50 (MCF7)
O=C(CCCC(=O)Nc1ccc(Cl)cc1Cl)CC(=O)c1ccc2ccccc2c1 | > 100 µM (inactive) | > 100 µM (inactive) | > 100 µM (inactive) | > 100 µM (inactive) | > 100 µM (inactive) | > 100 µM (inactive) | > 100 µM (inactive) | > 100 µM (inactive) | > 100 µM (inactive) | > 100 µM (inactive) | > 100 µM (inactive) | > 100 µM (inactive) | > 100 µM (inactive) | > 100 µM (inactive) | > 100 µM (inactive) | > 100 µM (inactive) | > 100 µM (inactive) | – | –
Oc1ncnc2c1nnn2CCCn1nnc2c(O)ncnc21 | > 100 µM (inactive) | > 100 µM (inactive) | > 100 µM (inactive) | > 100 µM (inactive) | > 100 µM (inactive) | > 100 µM (inactive) | > 100 µM (inactive) | > 100 µM (inactive) | > 100 µM (inactive) | > 100 µM (inactive) | > 100 µM (inactive) | > 100 µM (inactive) | > 100 µM (inactive) | > 100 µM (inactive) | > 100 µM (inactive) | > 100 µM (inactive) | > 100 µM (inactive) | – | –
O=C(CCCCCCCCCCc1ccccc1)C1=C(O)CCCC1=O | 40.4 µM (inactive) | 32.7 µM (inactive) | 42.2 µM (inactive) | 17.5 µM (inactive) | 41.2 µM (inactive) | 16.8 µM (inactive) | 43.7 µM (inactive) | 17.6 µM (inactive) | 26.6 µM (inactive) | 22.9 µM (inactive) | 19.8 µM (inactive) | 35.9 µM (inactive) | 52.4 µM (inactive) | 20.2 µM (inactive) | 25.5 µM (inactive) | 18.9 µM (inactive) | 30.9 µM (inactive) | – | –
Cc1cc(-c2ccccc2)nc(Nc2cc3ccccc3[nH]2)n1 | > 100 µM (inactive) | > 100 µM (inactive) | > 100 µM (inactive) | > 100 µM (inactive) | > 100 µM (inactive) | > 100 µM (inactive) | > 100 µM (inactive) | > 100 µM (inactive) | > 100 µM (inactive) | > 100 µM (inactive) | > 100 µM (inactive) | > 100 µM (inactive) | > 100 µM (inactive) | > 100 µM (inactive) | > 100 µM (inactive) | > 100 µM (inactive) | > 100 µM (inactive) | – | –
CCCCC(=O)OC[n+]1ccc2c(C)c3[nH]c4ccccc4c3c(C)c2c1 | 1.32 µM (inactive) | 1.01 µM (active) | 1.21 µM (inactive) | 0.46 µM (active) | 1.34 µM (inactive) | 0.0432 µM (active) | 0.537 µM (active) | 0.535 µM (active) | 0.46 µM (active) | 0.221 µM (active) | 0.186 µM (active) | 0.433 µM (active) | 0.796 µM (active) | 0.14 µM (active) | 1.26 µM (inactive) | 0.0275 µM (active) | 0.446 µM (active) | 0.217 µM (active) | 0.18 µM (active)
CCCCSC(=CC(=O)c1cccc(C(=O)C=C(SCCCC)SCCCC)n1)SCCCC | > 100 µM (inactive) | > 100 µM (inactive) | > 100 µM (inactive) | > 100 µM (inactive) | > 100 µM (inactive) | > 100 µM (inactive) | > 100 µM (inactive) | > 100 µM (inactive) | > 100 µM (inactive) | > 100 µM (inactive) | > 100 µM (inactive) | > 100 µM (inactive) | > 100 µM (inactive) | > 100 µM (inactive) | > 100 µM (inactive) | > 100 µM (inactive) | > 100 µM (inactive) | – | –
